# Experimental data as given in patent US8835428B2, “Diacylglycerol acyltransferase inhibitors” (Piramal Enterprises Limited, priority 2008, dated 2014).
# Biological target: T1, hDGAT1 (Homo sapiens, UniProt O75907)
# T1 construct: host or cells: Sf9 insect cells (baculovirus); microsomal preparation
# T1 sequence (O75907 1-488): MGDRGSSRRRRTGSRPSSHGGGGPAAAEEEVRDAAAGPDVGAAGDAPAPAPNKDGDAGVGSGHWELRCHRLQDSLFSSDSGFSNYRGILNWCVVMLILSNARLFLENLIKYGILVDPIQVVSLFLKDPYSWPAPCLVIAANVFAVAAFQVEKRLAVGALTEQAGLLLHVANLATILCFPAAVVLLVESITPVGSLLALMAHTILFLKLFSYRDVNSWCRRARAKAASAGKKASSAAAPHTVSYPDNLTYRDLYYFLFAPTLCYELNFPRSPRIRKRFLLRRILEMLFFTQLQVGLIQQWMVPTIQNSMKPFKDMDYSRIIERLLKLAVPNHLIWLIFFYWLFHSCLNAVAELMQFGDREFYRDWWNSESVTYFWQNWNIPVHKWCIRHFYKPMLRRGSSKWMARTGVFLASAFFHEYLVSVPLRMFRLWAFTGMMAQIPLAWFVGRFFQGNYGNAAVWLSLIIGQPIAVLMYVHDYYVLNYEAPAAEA
# Test: In-vitro DGAT1 assay (hDGAT1 microsomes from Sf9 cells, 14C oleoyl CoA, triglyceride formation)
# Format: biochemical
# Conditions: At 1 μM
# Procedure: In-vitro Protocol for DGAT1 Assay
# Sf9 Culture and Treatment
# Sf9 cells were grown in T25 flasks containing Graces's Insect media with 10% FBS with antibiotic (100 units/mL penicillin, 100 μg/mL streptomycin sulphate, 0.25 μg/mL Amptotericin B as Fungizone) grown in a 27° C. incubator:
# hDGAT1ORF expression clone (RZPDo839C09146 in pDEST vector) was obtained from RZPD, Germany. hDGAT1 bacmid DNA was obtained by transformation of the hDGAT expression clone into DH10Bac E. coli competent cells. Approximately 1 μg of hDGAT1 bacmid DNA was infected into Sf9 cells with Cellfectin (Invitrogen) reagent. Following infection, Sf9 cells were incubated at 27° C. for 30 minutes. Five hours after infection, the media was replaced with growth media containing antibiotic (100 units/mL penicillin, 100 μg/mL streptomycin sulphate, 0.25 μg/mL Amptotericin B as Fungizone) and incubated at 27° C. for 72 hours. The supernatant containing the virus was centrifuged at 1500×g for 5 minutes, passed through 0.22 μm filter, and subsequently stored at 4° C. The virus was further amplified three more times by re-infection of Sf9 cells and the viral titer was determined by plaque assay.
# Preparation of DGAT1 Microsomes from Sf9 Cells
# Sf9 cells were seeded in spinner flasks on day 0 at a cell density of 1×10^6 and infected on day 1 with hDGAT1 baculovirus at a multiplicity of infection (MOI) of 5 and a cell density of 2×10^6. On day 3 (or 66-72 hours), cells were harvested and centrifuged at 2500×g for 10 minutes. Pellet was resuspended in lysis buffer (100 mM sucrose, 50 mM KCl, 40 mM KH2PO4, 30 mM EDTA, pH 7.2) and passed through 21-gauge needle approximately 10 times. The mixture was centrifuged at 12,000 rpm in a Sigma 12158-H rotor at 4° C. for 30 minutes. The supernatant was subjected to centrifugation at 35,000 rpm in a Beckman Ti-45 rotor at 4° C. for 1 hour. The resultant pellet containing the microsomes were resuspended overnight in 1 mL of lysis buffer and total protein concentration was estimated using Bradford Reagent. Microsomes were aliquoted and stored at −20° C.
# Measurement of DGAT1 Activity
# Frozen aliquots of hDGAT1 containing microsomes were thawed (5-10 mg/mL total protein) on ice and diluted to a working stock of 1 mg/mL with DGAT Assay Buffer (DAB). The DGAT reaction assay was performed by following the procedure described in U.S. Pat. No. 6,607,893 with some modifications that are described below.
# Preparation of DGAT1 substrate mixture: 1 mL stock solution of DGAT1 substrate mixture contains (i) 5.6 μL of ^14C oleoyl CoA (16.8 nCi) and 35 μL 1,2-dioleoyl-sn-glycerol (409.5 μM) or (ii) 5.6 μL of ^14C oleoyl CoA (16.8 nCi) and 105 μL 1,2-dioleoyl-sn-glycerol (1228.5 μM) or (iii) 5.6 μL of ^14C oleoyl CoA (16.8 nCi) and 140 μL 1,2-dioleoyl-sn-glycerol (1638 μM).
# 1,2-sn-dioleoylglycerol substrate concentration in the 1 mL stock solution of DGAT1 substrate mixture was varied depending on the microsome concentration used in the assay reaction. 1,2-dioleoyl-sn-glycerol stock (19.5 mM) was prepared by dissolving 25 mg of 1,2-dioleoyl-sn-glycerol (Sigma, US) in 2060 μL of acetone. The assay was performed in duplicates in a reaction volume of 100 μL. The reaction volume consisted of: • (i) 27.5 μL of DGAT assay buffer (0.25M Sucrose, 1 mM EDTA (pH 8.0), 150 mM Tris-HCl, pH 7.4, 1.25 mg/mL, fatty acid free BSA), • (ii) 10 μL of compound, of present invention or standard (dissolved in DMSO and diluted to 10× with DAB and screened at 10 μM, 5 μM and 1 μM), • (iii) 60 μL DGAT1 substrate mixture taken from a 1 mL stock (16.8 nCi of ^14C oleoyl CoA and 409.5 μM or 1228.5 μM or 1638 μM of 1,2-dioleyl-sn-glycerol), • (iv) 2.5-10 μL of 1 mg/mL of microsomes (the amount of assay buffer was varied depending upon the concentration of microsome to make up the volume to 100 μL). Procedure:
# The reaction was started by the addition of 2.5-10 μL of 1 mg/mL of microsomes (iv) to a mixture of (i), (ii) and (iii), vortexed and incubated at 37° C. for 10 minutes. […]
row,inhibition at 1 µM [%],Compound
1,0 to 50,"CC(C)[C@H](NC(=O)c1csc(-c2ccc(NC(=O)Nc3ccc(F)cc3F)cc2)n1)C(=O)O [Example 359, (S)-2-(2-(4-(3-(2,4-difluorophenyl)ureido)phenyl)thiazole-4-carboxamido)-3-methylbutanoic acid]"
2,75 to 100,"CC(C)C(NC(=O)c1cc(-c2ccc(NC(=O)c3ccc(C(C)(C)C)cc3)cc2)no1)C(=O)O (stereo not drawn) [Example 297, 2-(3-(4-(4-tert-butylbenzamido)phenyl)isoxazole-5-carboxamido)-3-methylbutanoic acid]"
3,0 to 50,"CC(C)[C@H](NC(=O)c1csc(-c2ccc(NC(=O)Nc3ccc(F)c(F)c3)cc2)n1)C(=O)O [Example 371, (S)-2-(2-(4-(3-(3,4-Difluorophenyl)ureido)phenyl)thiazole-4-carboxamido)-3-methylbutanoic acid]"
4,0 to 50,"CC(C)C(NC(=O)c1cc(-c2ccc(OCc3ccccc3)cc2)no1)C(=O)O (stereo not drawn) [Example 322, 2-(3-(4-(Benzyloxy)phenyl)isoxazole-5-carboxamido)-3-methylbutanoic acid]"

# The remaining lines, values behind:
row,Compound,inhibition at 1 µM [%]
1,"CC(C)[C@H](NC(=O)c1cc(-c2ccc(NC(=O)Nc3ccc(F)cc3C(F)(F)F)cc2)no1)C(=O)O [Example 213, (S)-2-(3-(4-(3-(4-fluoro-2-(trifluoromethyl)phenyl)ureido)phenyl)isoxazole-5-carboxamido)-3-methylbutanoic acid]",50 to 75
2,"COc1ccc(NC(=O)Nc2ccc(-c3cc(C(=O)N[C@H](C(=O)O)C(C)C)on3)cc2)c(OC)c1 [Example 169, (S)-2-(3-(4-(3-(2,4-dimethoxyphenyl)ureido)phenyl)isoxazole-5-carboxamido)-3-methylbutanoic acid]",50 to 75
3,"COC(=O)[C@H](NC(=S)c1cc(-c2ccc(NC(=O)Nc3ccc(C)cc3)cc2)no1)C(C)C [Example 223, (R)-Methyl 3-methyl-2-(3-(4-(3-p-tolylureido)phenyl)isoxazole-5-carbothioamido)butanoate]",0 to 50

# Same assay, conditions: At 5 μM
row,inhibition at 5 µM [%],Compound
1,50 to 75,"COC(=O)[C@@H](NC(=O)c1nc(-c2ccc(NC(=O)Nc3ccc(C)cc3)cc2)no1)C(C)C [Example 346, (S)-Methyl 3-methyl-2-(3-(4-(3-p-tolylureido)phenyl)-1,2,4-oxadiazole-5-carboxamido)butanoate]"
2,50 to 75,"COC(=O)[C@@H](NC(=O)c1nc(-c2ccc(NC(=S)Nc3ccccc3F)cc2)no1)C(C)C [Example 355, (S)-methyl 2-(3-(4-(3-(2-fluorophenyl)thioureido)phenyl)-1,2,4-oxadiazole-5-carboxamido)-3-methylbutanoate]"
3,50 to 75,"COC(=O)C(NC(=O)c1cc(-c2ccc(NC(=O)Nc3ccc(F)cc3C)cc2)no1)C(C)C (stereo not drawn) [Example 284, Methyl 2-(3-(4-(3-(4-fluoro-2-methylphenyl)ureido)phenyl)isoxazole-5-carboxamido)-3-methylbutanoate]"
4,75 to 100,"CC(C)C(NC(=O)c1cc(-c2ccc(NC(=O)Nc3ccc(C(F)(F)F)cc3)cc2)no1)C(=O)O (stereo not drawn) [Example 276, 3-Methyl-2-(3-(4-(3-(4-(trifluoromethyl)phenyl)ureido)phenyl)isoxazole-5-carboxamido)butanoic acid]"
5,50 to 75,"COC(=O)[C@@H](NC(=O)c1nc(-c2ccc(NC(=S)NCc3ccccc3)cc2)no1)C(C)C [Example 356, (S)-methyl 2-(3-(4-(3-benzylthioureido)phenyl)-1,2,4-oxadiazole-5-carboxamido)-3-methylbutanoate]"
6,50 to 75,"O=C(Nc1ccc(-c2cc(C(=O)NC(Cc3ccccc3)C(=O)O)on2)cc1)Nc1ccccc1F (stereo not drawn) [Example 242, 2-(3-(4-(3-(2-Fluorophenyl)ureido)phenyl)isoxazole-5-carboxamido)-3-phenylpropanoic acid]"

# Second part, the compound before the results:
row,Compound,inhibition at 5 µM [%]
1,"COC(=O)[C@H](NC(=S)c1cc(-c2ccc(NC(=O)Nc3ccccc3F)cc2)no1)C(C)C [Example 222, (R)-Methyl 2-(3-(4-(3-(2-fluorophenyl)ureido)phenyl)isoxazole-5-carbothioamido)-3-methylbutanoate]",50 to 75
2,"CC(C)[C@H](NC(=O)c1cc(-c2ccc(NC(=O)Nc3ccccc3F)cc2F)no1)C(=O)O [Example 144, (S)-2-(3-(2-Fluoro-4-(3-(2-fluorophenyl)ureido)phenyl)isoxazole-5-carboxamido)-3-methylbutanoic acid]",75 to 100

# Same assay, conditions: At 10 μM
row,inhibition at 10 µM [%],Compound
1,75 to 100,"CC(C)C(NC(=O)c1cc(-c2ccc(NC(=O)Nc3ccc(F)cc3F)cc2)no1)C(=O)O (stereo not drawn) [Example 112, 2-(3-(4-(3-(2,4-Difluorophenyl)ureido)phenyl)isoxazole-5-carboxamido)-3-methylbutanoic acid]"
2,50 to 75,"O=C(Nc1ccc(F)cc1)Nc1ccc(-c2cc(C(=O)NC3(C(=O)O)CCCC3)on2)cc1 [Example 120, 1-(3-(4-(3-(4-fluorophenyl)ureido)phenyl)isoxazole-5-carboxamido) cyclopentanecarboxylic acid]"
3,50 to 75,"COC(=O)[C@@H](NC(=O)c1cc(-c2ccc(NC(=O)Nc3ccccc3)cc2)no1)C(C)C [Example 76, (S)-3-Methyl-2-({3-[4-(3-phenyl-ureido)-phenyl]-isoxazole-5-carbonyl}-amino)-butyric acid methyl ester]"
4,50 to 75,"COC(=O)C(C)(C)NC(=O)c1cc(-c2ccc(NC(=O)Nc3ccc(F)cc3)cc2)no1 [Example 117, Methyl 2-(3-(4-(3-(4-fluorophenyl)ureido)phenyl)isoxazole-5-carboxamido)-2-methylpropanoate]"
5,75 to 100,"Cc1cc(NC(=O)Nc2ccc(F)cc2)ccc1-c1cc(C(=O)NC(C(=O)O)C(C)C)on1 (stereo not drawn) [Example 134, 2-(3-(4-(3-(4-fluorophenyl)ureido)-2-methylphenyl)isoxazole-5-carboxamido)-3-methylbutanoic acid]"
6,0 to 50,"COC(=O)[C@H](NC(=NO)c1cc(-c2ccc(Nc3nc4ccc(F)cc4s3)cc2)no1)C(C)C [Example 40, (R)-2-({3-[4-(6-Fluoro-benzothiazol-2-ylamino)-phenyl]-N-hydroxy-isoxazole-5-carboximidoyl}-amino)-3-methyl-butyric acid methyl ester]"
